Source: BindingDB's records for doi:10.1021/acs.jmedchem.8b01602 (2018)

Columns and labels:
[1] = Inhibition of mouse GAT2 expressed in HEK293 cells assessed as reduction in [3H]GABA uptake preincubated for 25 mins followed by [3H]GABA addition and measured after 10 mins by liquid scintillation counting method
[2] = Inhibition of mouse GAT3 expressed in HEK293 cells assessed as reduction in [3H]GABA uptake preincubated for 25 mins followed by [3H]GABA addition and measured after 4 mins by liquid scintillation counting method
[3] = Non-competitive inhibition of human GAT1 expressed in COS cells assessed as reduction in [2H6]GABA uptake by measuring [2H6]GABA Kd(app) at 1 uM preincubated for 25 mins followed by [2H6]GABA addition and measured after 4 mins by liquid scintillation counting method (Rvb = 28.3 +/- 1.5 nM)
[4] = Non-competitive inhibition of human GAT1 expressed in COS cells assessed as reduction in [2H6]GABA uptake by measuring [2H6]GABA Kd(app) at 10 uM preincubated for 25 mins followed by [2H6]GABA addition and measured after 4 mins by liquid scintillation counting method (Rvb = 28.3 +/- 1.5 nM)

IC50 [1] [µM]	IC50 [2] [µM]	Kd [3] [µM]	Kd [4] [µM]	SMILES
53.7	58.9	–	–	O=C(O)[C@H]1CNC[C@@H](CCN/N=C/c2ccc(-c3ccc(C(F)(F)F)cc3Cl)o2)C1
–	33.1	0.056	0.112	O=C(O)[C@H]1CNC[C@@H](CN/N=C/c2ccc(-c3cccc4ccccc34)o2)C1
53.7	25.7	–	–	O=C(O)[C@H]1CNC[C@@H](CCN/N=C/c2ccc(-c3ccc(Cl)cc3Cl)o2)C1
–	–	0.058	0.154	O=C(O)[C@H]1CNC[C@@H](CN/N=C/c2ccc(-c3cc(C(F)(F)F)cc(C(F)(F)F)c3)o2)C1
